Measurements taken from patent US20080306146A1, “Dosing Regimens for Cox-2 Inhibitor” (AMOREPACIFIC CORPORATION, priority 2005, published 2008).

How the values were obtained:
[1] = system: carrageenan-induced thermal hyperalgesia in male SD rats; details: orally administered; cited from earlier work
[2] = system: adjuvant-induced arthritis in male Lewis rats; details: cited from earlier work
[3] = plasma pharmacokinetics in healthy male subjects, multiple dose (loading plus daily maintenance dose, 8 days); format: in vivo, human
From the text: By assuming an elimination half-life of 4 to 5 days for Compound A, were designed multiple dosing regimens by which steady state plasma concentrations of Compound A are rapidly reached and maintained throughout the dosing period. […] Although only two examples of dosing regimens involving a combination of loading dose and daily maintenance dose are provided in Table 3, it is not intended to limit the dosing regimens of this invention only to those provided in Table 3. Obviously, variations in the loading dose and consequent the daily maintenance dose levels may be conceived depending on indications of subjects. For example a loading dose of 2 mg may be used in combination with a daily maintenance dose of about 0.25 mg/day.
The dosing regimens of the instant invention were tested in healthy human male subjects. Table 4 provides mean pre-dose plasma levels of Compound A following oral administrations of capsule drug products containing Compound A according to either Regimen A or Regimen B of Table 3 daily once for 8 days. In both dosing regimens, the pre-dose plasma levels remained almost constant.

clinical = details: male, human, plasma, po
[4] = plasma pharmacokinetics in healthy male subjects, single oral dose of capsule drug product

In the case of `COc1ccc2c(c1)c(CC(=O)O)c(C)n2C(=O)c1ccc(Cl)cc1` [indomethacin, reference compound], the “ED50 in carrageenan-induced thermal hyperalgesia” value [1] is listed as ~1.0 mg/kg and the “ED50 by adjuvant-induced arthritis” value [2] is listed as 0.3 mg/kg/day.

For `CC1(C)OC(c2ccc(S(N)(=O)=O)cc2)=C(c2cccc(F)c2)C1=O` [Compound A, 5-{4-(aminosulfonyl)phenyl}-2,2-dimethyl-4-(3-fluorophenyl)-3(2H)furanone], the “Mean Pre-dose Plasma Level” value ([3]; Regimen A (3 mg loading, 0.4 mg/day maintenance), Day 2) was 3.8 ng/mL, the “drug accumulation from the multiple dosings” value ([3]; Regimen A and Regimen B, daily once for 8 days) was “no suggestions of drug accumulation” and the “Mean Pre-dose Plasma Level” value ([3]; Regimen A, Day 1 (before loading dose)) was 0 ng/mL. The “Mean Pre-dose Plasma Level” value ([3]; Regimen A, Day 3) was 4.2 ng/mL, the “Mean Pre-dose Plasma Level” value ([3]; Regimen A, Day 4) was 4.0 ng/mL and the “Mean Pre-dose Plasma Level” value ([3]; Regimen A, Day 5) was 4.7 ng/mL. The “Mean Pre-dose Plasma Level” value ([3]; Regimen A, Day 6) was 4.5 ng/mL, the “Mean Pre-dose Plasma Level” value ([3]; Regimen A, Day 7) was 3.6 ng/mL and the “Mean Pre-dose Plasma Level” value ([3]; Regimen A, Day 8) was 3.6 ng/mL. The “Mean Pre-dose Plasma Level” value ([3]; Regimen A, Day 9 (no dose)) was 4.0 ng/mL, the “Mean Pre-dose Plasma Level” value ([3]; Regimen B (6 mg loading, 0.8 mg/day maintenance), Day 2) was 6.2 ng/mL and the “Mean Pre-dose Plasma Level” value ([3]; Regimen B, Day 1 (before loading dose)) was 0 ng/mL. For the same compound, the “Mean Pre-dose Plasma Level” value ([3]; Regimen B, Day 3) was 6.2 ng/mL, the “Mean Pre-dose Plasma Level” value ([3]; Regimen B, Day 4) was 6.3 ng/mL and the “Mean Pre-dose Plasma Level” value ([3]; Regimen B, Day 5) was 6.5 ng/mL. For the same compound, the “Mean Pre-dose Plasma Level” value ([3]; Regimen B, Day 6) was 6.3 ng/mL, the “Mean Pre-dose Plasma Level” value ([3]; Regimen B, Day 7) was 6.6 ng/mL and the “Mean Pre-dose Plasma Level” value ([3]; Regimen B, Day 8) was 7.1 ng/mL. The “Mean Pre-dose Plasma Level” value ([3]; Regimen B, Day 9 (no dose)) was 6.6 ng/mL, the half-life ([3]; male, human, plasma, oral, Regimen A and Regimen B, after 8 days of daily once dosing, read-out: mean elimination half-lives following the last dosing) was 96 to 120 h and the “ED50 in carrageenan-induced thermal hyperalgesia” value [1] was 0.25 mg/kg. It also gave a half-life (clinical) of 77 to 135 h, a Cmax (clinical; 1 mg) of 1.65 ng/mL and a Cmax (clinical; 5 mg) of 7.82 ng/mL. For the same compound, the Cmax (clinical; 8 mg) was 13.3 ng/mL, the Cmax (clinical; 12 mg) was 18.1 ng/mL and the “ED50 by adjuvant-induced arthritis” value [2] was 0.1 mg/kg/day. The “Terminal Elimination Half-life” value ([4]; single oral dose 5 mg (Group 2)) was 118 ± 66 h, the “Terminal Elimination Half-life” value ([4]; single oral dose 8 mg (Group 3)) was 77 ± 8 h and the “Terminal Elimination Half-life” value ([4]; single oral dose 12 mg (Group 4)) was 135 ± 24 h. The “dose dependence of Cmax” value ([4]; single oral dose 1 to 12 mg) was “increased essentially dose proportionally”.
